Laboratory results published in US10183938B2, “Geminal substituted quinuclidine amide compounds as agonists of α-7 nicotonic acetylcholine receptors” (AXOVANT SCIENCES GMBH, priority 2014, dated 2019).
Where a name gives a salt, the structure may show the parent alone. Read-outs that look alike come from different tables or passages of the source.

How the values were obtained:
[1] = molecular target: human 5-HT3 serotonin receptors (Homo sapiens (Human), UniProt P46098); test: [3H]BRL 43694 competition binding
human 5-HT3 serotonin receptors, sequence (P46098 24-478): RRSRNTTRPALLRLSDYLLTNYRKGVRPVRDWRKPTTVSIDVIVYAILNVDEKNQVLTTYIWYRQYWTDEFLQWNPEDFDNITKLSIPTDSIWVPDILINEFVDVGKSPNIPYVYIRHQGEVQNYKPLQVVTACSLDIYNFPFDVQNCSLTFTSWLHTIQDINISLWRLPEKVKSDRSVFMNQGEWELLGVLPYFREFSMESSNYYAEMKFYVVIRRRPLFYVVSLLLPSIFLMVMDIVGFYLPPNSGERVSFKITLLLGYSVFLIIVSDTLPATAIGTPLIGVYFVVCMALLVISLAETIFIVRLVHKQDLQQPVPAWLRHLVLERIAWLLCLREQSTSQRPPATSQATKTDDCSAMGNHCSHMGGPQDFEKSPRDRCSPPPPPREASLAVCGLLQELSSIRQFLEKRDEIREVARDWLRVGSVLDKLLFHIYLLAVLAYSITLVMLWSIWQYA

[2] = molecular target: human α7 nAChRs transiently expressed in Xenopus laevis oocytes (Homo sapiens (Human), UniProt P36544); test: Oocyte electrophysiology screen (TEVC); type: cell-based; settings: 0.01 mM test compound, peak current relative to 0.2 mM ACh
human α7 nAChRs transiently expressed in Xenopus laevis oocytes, sequence (P36544 23-502 limits assumed): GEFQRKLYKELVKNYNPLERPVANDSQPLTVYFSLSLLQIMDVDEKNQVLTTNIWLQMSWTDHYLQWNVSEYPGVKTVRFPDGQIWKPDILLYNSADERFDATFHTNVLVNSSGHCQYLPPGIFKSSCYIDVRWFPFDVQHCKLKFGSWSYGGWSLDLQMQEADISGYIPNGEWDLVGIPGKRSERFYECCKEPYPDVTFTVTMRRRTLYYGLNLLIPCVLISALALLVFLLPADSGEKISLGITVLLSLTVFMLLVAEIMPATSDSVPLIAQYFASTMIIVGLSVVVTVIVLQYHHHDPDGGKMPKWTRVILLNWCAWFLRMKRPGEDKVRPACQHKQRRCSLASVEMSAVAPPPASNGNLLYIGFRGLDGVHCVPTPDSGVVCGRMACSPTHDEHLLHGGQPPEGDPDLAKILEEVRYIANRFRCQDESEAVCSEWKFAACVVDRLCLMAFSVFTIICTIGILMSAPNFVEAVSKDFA
Summary of the method: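 Oocytes expressing human α7 were clamped at −80 mV by TEVC. After a 0.2 mM ACh control pulse, test compound was applied at 0.01 mM for 30 s. Agonist response is peak current as % of the ACh response, in triplicate.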

[3] = CHO cell membranes, [3H]BRL 43694, Cheng Prusoff, read-out: h-5HT3 Ki

Row | SMILES | Ki [1] [µM] | % ACh @ 10 μM Oocyte [2] [% ACh] | Ki [1, 3] [µM]
1 | O=C(NC1C2CCN(CC2)C12CC2)c1cc2cccc(Cl)c2s1 (single isomer, unassigned; enantiomer1) [56a, 7-chloro-N-(1′-azaspiro[cyclopropane-1,2′-bicyclo[2.2.2]octan]-3′-yl)benzo[b]thiophene-2-carboxamide-enantiomer1] | 0.048 | 1231 | 
2 | O=C(NC1C2CCN(CC2)C12CC2)c1ccc2ccsc2c1 (single isomer, unassigned; enantiomer1) [58a, N-(1′-azaspiro[cyclopropane-1,2′-bicyclo[2.2.2]octan]-3′-yl)benzo[b]thiophene-6-carboxamide-enantiomer1] |  | 235 | 0.91
3 | O=C(NC1C2CCN(CC2)C12CC2)c1ccc2occc2c1 (single isomer, unassigned; enantiomer1) [59a, N-(1′-azaspiro[cyclopropane-1,2′-bicyclo[2.2.2]octan]-3′-yl)benzofuran-5-carboxamide-enantiomer1] | 6.5 | 823 | 
4 | O=C(NC1C2CCN(CC2)C12CC2)c1cc2cccc(C(F)(F)F)c2s1 (single isomer, unassigned; enantiomer1) [60a, N-(1′-azaspiro[cyclopropane-1,2′-bicyclo[2.2.2]octan]-3′-yl)-7-(trifluoromethyl)benzo[b]thiophene-2-carboxamide-enantiomer1] |  | 501 | 1.01
5 | O=C(NC1C2CCN(CC2)C12CC2)c1cc2ccc(F)cc2s1 (single isomer, unassigned; enantiomer1) [61a, 6-fluoro-N-(1′-azaspiro[cyclopropane-1,2′-bicyclo[2.2.2]octan]-3′-yl)benzo[b]thiophene-2-carboxamide-enantiomer1] |  | 1493 | 1.5
6 | O=C(NC1C2CCN(CC2)C12CC2)c1cc2cc(F)ccc2s1 (single isomer, unassigned; enantiomer1) [64a, 5-fluoro-N-(1′-azaspiro[cyclopropane-1,2′-bicyclo[2.2.2]octan]-3′-yl)benzo[b]thiophene-2-carboxamide-enantiomer1] | 0.42 | 511 | 
7 | CC1(C)[C@H](NC(=O)c2cc3cccc(Cl)c3s2)C2CCN1CC2 [(R)-3, (R)-7-chloro-N-(2,2-dimethylquinuclidin-3-yl)benzo[b]thiophene-2-carboxamide hydrochloride] |  | 304 | 0.27
8 | CC1(C)[C@H](NC(=O)c2cc3cccc(F)c3s2)C2CCN1CC2 [(R)-4, (R)—N-(2,2-dimethylquinuclidin-3-yl)-7-fluoro-benzo[b]thiophene-2-carboxamide hydrochloride] |  | 1060 | 0.87
9 | CC1(C)[C@H](NC(=O)c2ccc3ccsc3c2)C2CCN1CC2 [(R)-5, (R)—N-(2,2-dimethylquinuclidin-3-yl)benzo[b]thiophene-6-carboxamide hydrochloride] |  | 282 | 1.9
10 | CC1(C)[C@H](NC(=O)c2ccc3occc3c2)C2CCN1CC2 [(R)-6, (R)—N-(2,2-dimethylquinuclidin-3-yl)benzofuran-5-carboxamide hydrochloride] |  | 374 | > 10
11 | CC1(C)[C@H](NC(=O)c2cc3cccc(C(F)(F)F)c3s2)C2CCN1CC2 [(R)-7, (R)—N-(2,2-dimethylquinuclidin-3-yl)-7-(trifluoromethyl)benzo[b]thiophene-2-carboxamide hydrochloride] |  | 466 | 3.4
12 | CC1(C)[C@H](NC(=O)c2cc3ccc(F)cc3s2)C2CCN1CC2 [(R)-8, (R)—N-(2,2-dimethylquinuclidin-3-yl)-6-fluorobenzo[b]thiophene-2-carboxamide hydrochloride] |  | 480 | 6.5
13 | CC1(C)[C@H](NC(=O)c2cc3ccc(C#N)cc3s2)C2CCN1CC2 [(R)-9, (R)-6-cyano-N-(2,2-dimethylquinuclidin-3-yl)benzo[b]thiophene-2-carboxamide hydrochloride] |  | 2 | > 10
14 | CC1(C)[C@H](NC(=O)c2cc3ccc(C(F)(F)F)cc3s2)C2CCN1CC2 [(R)-10, (R)—N-(2,2-dimethylquinuclidin-3-yl)-6-(trifluoromethyl)benzo[b]thiophene-2-carboxamide hydrochloride] |  | 1 | > 10
15 | CC1(C)[C@H](NC(=O)c2cc3cc(F)ccc3s2)C2CCN1CC2 [(R)-11, (R)—N-(2,2-dimethylquinuclidin-3-yl)-5-fluorobenzo[b]thiophene-2-carboxamide hydrochloride] |  | 552 | 1.7
16 | CC1(C)[C@H](NC(=O)c2cc3cc(Cl)ccc3s2)C2CCN1CC2 [(R)-13, (R)-5-chloro-N-(2,2-dimethylquinuclidin-3-yl)benzo[b]thiophene-2-carboxamide hydrochloride] |  | 132 | 2.1
17 | CC1(C)[C@H](NC(=O)c2cc3cc(Cl)c(Cl)cc3s2)C2CCN1CC2 [(R)-14, (R)-5,6-dichloro-N-(2,2-dimethylquinuclidin-3-yl)benzo[b]thiophene-2-carboxamide hydrochloride] |  | 3 | > 10
18 | Cc1ccc2cc(C(=O)N[C@@H]3C4CCN(CC4)C3(C)C)sc2c1 [(R)-15, (R)—N-(2,2-dimethylquinuclidin-3-yl)-6-methylbenzo[b]thiophene-2-carboxamide hydrochloride] |  | 539 | > 10
19 | Cc1ccc2sc(C(=O)N[C@@H]3C4CCN(CC4)C3(C)C)cc2c1 [(R)-16, (R)—N-(2,2-dimethylquinuclidin-3-yl)-5-methylbenzo[b]thiophene-2-carboxamide hydrochloride] |  | 74 | 2.5
20 | O=C(N[C@@H]1C2CCN(CC2)C12CC2)c1cc2ccc3c(c2s1)OCCC3 [(R)-201, (R)—N-(1′-azaspiro[cyclopropane-1,2′-bicyclo[2.2.2]octan]-3′-yl)-3,4-dihydro-2H-thieno[3,2-h]chromene-8-carboxamide hydrochloride] |  |  | 3.6
21 | O=C(N[C@@H]1C2CCN(CC2)C12CC2)c1ccc2cc(Cl)sc2c1 [(R)-203, (R)-2-chloro-N-(1′-azaspiro[cyclopropane-1,2′-bicyclo[2.2.2]octan]-3′-yl)benzo[b]thiophene-6-carboxamide hydrochloride] |  |  | 2.3
22 | O=C(N[C@@H]1C2CCN(CC2)C12CC2)c1cc2ccc3c(c2s1)CCCO3 [(R)-204, (R)—N-(1′-azaspiro[cyclopropane-1,2′-bicyclo[2.2.2]octan]-3′-yl)-8,9-dihydro-7H-thieno[2,3-f]chromene-2-carboxamide hydrochloride] |  |  | > 10
23 | Cc1c(Cl)ccc2cc(C(=O)N[C@@H]3C4CCN(CC4)C34CC4)sc12 [(R)-205, (R)-6-chloro-7-methyl-N-(1′-azaspiro[cyclopropane-1,2′-bicyclo[2.2.2]octan]-3′-yl)benzo[b]thiophene-2-carboxamide hydrochloride] |  |  | 2.6
24 | COc1c(C2CC2)ccc2cc(C(=O)N[C@@H]3C4CCN(CC4)C34CC4)sc12 [(R)-262, (R)-6-cyclopropyl-7-methoxy-N-(1′-azaspiro[cyclopropane-1,2′-bicyclo[2.2.2]octan]-3′-yl)benzo[b]thiophene-2-carboxamide hydrochloride] |  |  | > 10
